Test results from ChEMBL document CHEMBL5149996, “Structure-Based Optimization and Discovery of M3258, a Specific Inhibitor of the Immunoproteasome Subunit LMP7 (β5i)” (J Med Chem, 2021).
The source made the active and inactive calls. The calls are words filed in the database; no cut-off is given here.

Legend:
[1] = Lipophilicity, log P of the compound; assay type: physicochemical; settings: octanol/water
U-266 [2] = assay: In vivo inhibition of LMP7 activity in tumor lysates of H2d Rag2 mouse xenografted with human U266B1 cells at 0.3 mg/kg, po administered as single dose using (Ac-ANW)2R110 as substrate measured after 1 to 6 hrs by fluorescence intensity assay; assay type: functional, organism-based; settings: Neoplasm, time 1-6 hrs
Homo sapiens = species on record: Homo sapiens; assay: Selectivity ratio of IC50 for inhibition of 20S proteasome beta5 subunit in human A549 cells to IC50 for inhibition of 20S immunoproteasome beta-5i subunit in human PBMC; assay type: cell-based
[3] = target: T1, Proteasome subunit beta type-6 (Homo sapiens, UniProt P28072); assay: Inhibition of human 20S […] beta1 subunit using Ac-nLPnLD-AMC as substrate preincubated for 2 hrs followed by substrate addition and measured after 1 hr by fluorescence intensity assay
T1 sequence (P28072 whole entry): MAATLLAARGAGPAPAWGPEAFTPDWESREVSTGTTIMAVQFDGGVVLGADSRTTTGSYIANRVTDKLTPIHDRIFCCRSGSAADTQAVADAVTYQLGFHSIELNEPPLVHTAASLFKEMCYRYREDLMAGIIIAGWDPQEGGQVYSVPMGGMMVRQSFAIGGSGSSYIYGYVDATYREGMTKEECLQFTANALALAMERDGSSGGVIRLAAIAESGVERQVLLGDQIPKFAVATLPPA

[4] = tested on: 20S immunoproteasome beta-5i subunit; assay: Selectivity ratio of IC50 for cytotoxicity against Wistar Han rat hepatocytes to IC50 for inhibition of 20S immunoproteasome beta-5i subunit in human PBMC; assay type: toxicity; settings: read-out: Ratio IC50
[5] = Volume of distribution at steady state in iv dosed mouse; assay type: ADME, organism-based; settings: in vivo, read-out: Vdss
[6] = tested on: 20S immunoproteasome beta-5i subunit; assay: Selectivity ratio of IC50 for cytotoxicity against human primary hepatocytes to IC50 for inhibition of 20S immunoproteasome beta-5i subunit in human PBMC; assay type: toxicity; settings: read-out: Ratio IC50
U-266 [7] = assay: In vivo inhibition of LMP7 activity in tumor lysates of H2d Rag2 mouse xenografted with human U266B1 cells at 1 mg/kg, po administered as single dose using (Ac-ANW)2R110 as substrate measured up to 14 hrs by fluorescence intensity assay; assay type: functional, organism-based; settings: Neoplasm
[8] = Clearance in human hepatocytes measured per million of cells; assay type: ADME, cell-based, Hepatocyte; settings: read-out: CLH
[9] = target: T2, Proteasome subunit beta type-10 (Homo sapiens, UniProt P40306); assay: Inhibition of human 20S immunoproteasome beta-2i subunit using Ac-RLR-AMC as substrate preincubated for 2 hrs followed by substrate addition and measured after 1 hr by fluorescence intensity assay
T2 sequence (P40306 whole entry): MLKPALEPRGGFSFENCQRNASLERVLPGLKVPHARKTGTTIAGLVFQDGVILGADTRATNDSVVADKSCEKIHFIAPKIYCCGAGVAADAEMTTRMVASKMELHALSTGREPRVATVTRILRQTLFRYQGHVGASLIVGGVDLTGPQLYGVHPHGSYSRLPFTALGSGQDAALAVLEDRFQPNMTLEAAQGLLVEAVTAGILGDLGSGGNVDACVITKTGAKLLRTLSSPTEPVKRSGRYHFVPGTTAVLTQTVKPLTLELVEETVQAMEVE

O=C(N[C@@H](Cc1coc2ccccc12)B(O)O)[C@@H]1C[C@H]2CC[C@@H]1O2
logP [1]: 2.34
inhibition (U-266 [2]): Active
Ratio IC50 (Homo sapiens): 305
IC50 [3]: > 30 µM
selectivity ratio [4]: 10000
Vd [5]: 0.47 L/kg
selectivity ratio [6]: 10000
inhibition (U-266 [7]): Active
hepatocyte CLint [8]: 6.2 µL/min/1e6 cells
IC50 [9]: > 30 µM
